We go through one compound from patent US20170368082A1, “FORMULATIONS OF BRINCIDOFOVIR” (priority 2016, published 2017).

Molecules are shown by their SMILES.

Broadly, the half-life is how long it takes for the measured level to halve. The low end stands for rapid decline, the high end for slow decline. The term AUC(0-inf) denotes the area under the concentration-time curve extrapolated to infinity. The low end stands for less exposure, the high end for more exposure. What is called Cmax is the peak of the concentration-time curve.

The nature of data set [1]: 7-day dose range-finding study, 2-hour IV infusion (Phase 2): toxicity. The data set is classed as in vivo, Sprague-Dawley CD rats. How it is done:
For Phase 2, Sprague-Dawley CD® rats (5/sex/group) were dosed with brincidofovir via 2-hour IV infusion with 0 [2× sodium phosphate buffer solution (400 mM, pH 8.0±0.04)], 1 or 15 mg/kg on Days 1, 4 and 7. The dose volume was 10 mL/kg/hr for all groups. At the end of the Phase 2 treatment period, all animals were euthanized and necropsied. Phase 2 satellite animals (3/sex/Group 1 and 6/sex/Group 2-3) were similarly dosed and blood samples collected on Days 1 and 7 for toxicokinetic analysis of brincidofovir and one of its metabolites, cidofovir.
For Phase 2 (DRF), the test and control articles were administered, via intravenous 2-hour IV infusion to rats on Days 1, 4, and 7.
During Phase 2, each animal received brincidofovir administrations via intravenous infusion (2-hours) on Days 1, 4 and 7. Animals were maintained on sterile saline at a rate of 0.5 mL/hour between doses. Catheters were tied off after the completion of dose administration on Day 7 (a knot was placed in the catheter and the catheter was receded under the skin) and jackets were removed.
Blood obtained via the orbital sinus (retrobulbar venous plexus) as a terminal procedure under light isoflurane anesthesia was used to analyze hematology and clinical chemistry parameters for all animals at termination of dosing. Animals were fasted overnight prior to blood collection. Animals were not allowed to recover from anesthesia after blood collection.
Blood samples (approximately 0.25 mL) were collected into tubes containing K2EDTA anticoagulant and analyzed for the following using a Siemens ADVIA 120 Hematology Analyzer: Hemoglobin concentration (HGB); Hematocrit (HCT); Erythrocyte count (RBC); Platelet count (PLT); Mean corpuscular volume (MCV); Mean corpuscular hemoglobin (MCH); Mean corpuscular hemoglobin concentration (MCHC); Red cell distribution width (RDW); Total leukocyte count (WBC); Reticulocyte count (RETIC); Differential leukocyte count (Manual differential leukocyte counts were performed for verification and absolute values were calculated if necessary); Neutrophils (ANEU); Lymphocytes (ALYM); Eosinophils (AEOS); Basophils (ABASO); Monocytes (AMONO); Large unstained cells (ALUC);
Blood samples (approximately 1 mL) were collected into tubes with no anticoagulant, allowed to clot, centrifuged to obtain serum and analyzed for the following using a Siemens ADVIA 1800 Chemistry Analyzer: Aspartate aminotransferase (AST) (Kinetic—Modified Bergmeyer); Alanine aminotransferase (ALT) (Kinetic—Modified Bergmeyer); Alkaline phosphatase (ALKP) (Kinetic—Tietz AMP Buffer); Blood urea nitrogen (BUN) (Enzymatic Roch-Ramek with Urease); Creatinine (CREAT) (Jaffe Picric Acid in Alkaline Medium); Glucose (GLU) (Glucose Hexokinase II Method); Cholesterol (CHOL) (Enzymatic esterase/oxidase Trinder Endpoint); Triglycerides (TRIG) (Fossati Three Step Enzymatic—Trinder Endpoint); Total protein (TP) (Biuret Technique); Albumin (ALB) (Bromocresol Green Method); Total bilirubin (TBILI) (Oxidation with Vandate); Sodium (NA^+) (Ion Selective Electrode); Potassium (K^+) (Ion Selective Electrode); Chloride (Cr) (Ion Selective Electrode); Calcium (Ca′) (Michaylova & Ilkova, Arsenazo III); Inorganic phosphorus (PHOS) (Phosphomolybdate—UV Method).
Complete macroscopic examinations were performed on all Phase 2 main study animals. The macroscopic examination included examination of the external surface and all orifices; the external surfaces of the brain and spinal cord; the organs and tissues of the cranial, thoracic, abdominal and pelvic cavities and neck; and the remainder of the carcass for the presence of macroscopic morphologic abnormalities. Animals were discarded after examination; no tissues were collected or preserved.

A short description of data set [2]: Plasma BCV PK following single dose oral tablet administration (Table 105). Format: in vivo. The conditions noted are these: human; for AUC(0-inf) / Cmax: plasma, po.
Where [3] appears, read: 100 mg, 100 mg Oral Tablet, N = 52, geometric mean.
The mark [4] stands for this setting: 200 mg, 200 mg Oral Tablet, N = 15, geometric mean.
Setting [5] is: 200 mg, 200 mg Oral Tablet, N = 63, geometric mean.
Where [6] appears, read: 350 mg, 350 mg Oral Tablet, N = 70, geometric mean.

For `CCCCCCCCCCCCCCCCOCCCOP(=O)(O)CO[C@H](CO)Cn1ccc(N)nc1=O` [Brincidofovir], in data set [1] (1 and 15 mg/kg/day, Days 1, 4 and 7), the Tolerability result is given as “well tolerated”. Further, the Clinical signs result in data set [1] (1 or 15 mg/kg/day) was “did not result in any brincidofovir-related clinical signs”. Also, the “Decrease in red cell mass vs controls (to)” value in data set [1] (end of 7-day dosing phase) is on record as −4.2%. The “Change in reticulocytes vs controls” value is recorded as −30% in data set [1] (females, 15 mg/kg) and −33% in data set [1] (males, 15 mg/kg, Days 1, 4, 7). In addition, in data set [1] (females, 15 mg/kg), the “Change in urea (BUN) vs controls” value is reported as “+29%”. The “Change in total calcium vs controls” value in data set [1] (females, ≧1 mg/kg) is recorded as “+4.9%”; in data set [1] (males, 15 mg/kg), “+3.8%”. In addition, the “Change in MCHC vs controls” value in data set [1] (males, 15 mg/kg) is on record as “+2.1%”. In addition, the half-life in data set [2] (100 mg Oral Tablet, N = 52, geometric mean) is 7.62 h; in data set [2] (200 mg Oral Tablet, N = 15, geometric mean) it was 12 h. Further, the AUC(0-inf) is 1380 ng·h/mL in data set [2] (setting [3]), 3310 ng·h/mL in data set [2] (setting [4]), 3740 ng·h/mL in data set [2] (setting [5]) and 6940 ng·h/mL in data set [2] (setting [6]). The Cmax in data set [2] (setting [3]) was found to be 258 ng/mL; in data set [2] (setting [4]) it was 622 ng/mL; in data set [2] (setting [5]) it was 802 ng/mL; in data set [2] (setting [6]), 1480 ng/mL.
